# Laboratory results: PubChem BioAssay AID1745844 (Carcinogenic Potency Database (CPDB), 2022)
# Active and inactive are the calls of the source. No rule for the calls is given here.
# System: rodent lifetime carcinogenesis bioassay, tumor incidence TD50
# Assay: chronic cancer bioassays in animals – CPDB, compiled studies (AID 1745844)
smiles,measurement,setting,value
Nc1ccc(N=Nc2ccc(N)cc2)cc1,carcinogen call,"mouse, strain BALB/cLacDp, females, in feed, site: liver, lesion: several types, types named in the paper, dosed 60 weeks, study length 132 weeks",negative (inactive)
same,TD50,"mouse, strain BALB/cLacDp, females, in feed, site: lung, lesion: several types, types named in the paper, dosed 60 weeks, study length 132 weeks",240 mg/kg/day (inactive)
same,carcinogen call,"mouse, strain BALB/cLacDp, males, in feed, site: liver, lesion: several types, types named in the paper, dosed 60 weeks, study length 132 weeks",negative (inactive)
same,TD50,"mouse, strain BALB/cLacDp, males, in feed, site: lung, lesion: several types, types named in the paper, dosed 60 weeks, study length 132 weeks",213 mg/kg/day (inactive)
CCCCCCCCCCCC[N+](C)(C)[O-],carcinogen call,"rat, strain Fischer 344, females, in drinking water, site: liver, lesion: neoplastic nodule, dosed 93 weeks, study length 128 weeks",negative (inactive)
same,TD50,"rat, strain Fischer 344, males, in drinking water, site: liver, lesion: hepatocellular carcinoma, dosed 93 weeks, study length 128 weeks",519 mg/kg/day (inactive)
same,TD50,"rat, strain Fischer 344, males, in drinking water, site: liver, lesion: neoplastic nodule, dosed 93 weeks, study length 128 weeks",496 mg/kg/day (inactive)
same,TD50,"rat, strain Fischer 344, males, in drinking water, site: liver, lesion: several types, types named in the paper, dosed 93 weeks, study length 128 weeks",231 mg/kg/day (inactive)
Nc1ccc2oc3ccccc3c2c1,carcinogen call,"mouse, strain (C57 x IF)F1, females, in feed, site: liver, lesion: several types, types named in the paper, dosed 52 weeks, study length 58 weeks",positive
same,TD50,"mouse, strain (C57 x IF)F1, males, in feed, site: liver, lesion: malignant hepatoma, dosed 52 weeks, study length 67 weeks",8.67 mg/kg/day
same,TD50,"mouse, strain (C57 x IF)F1, males, in feed, site: liver, lesion: several types, types named in the paper, dosed 52 weeks, study length 67 weeks",5.73 mg/kg/day
same,TD50,"mouse, strain (C57 x IF)F1, males, in feed, site: urinary bladder, lesion: carcinoma, dosed 52 weeks, study length 67 weeks",22.3 mg/kg/day
Nc1cc(Cl)c(N)c(Cl)c1,TD50,"mouse, strain B6C3F1, females, in feed, site: any site (literature study), lesion: several types, types named in the paper, dosed 103 weeks, study length 111 weeks",801 mg/kg/day
same,TD50,"mouse, strain B6C3F1, females, in feed, site: liver, lesion: hepatocellular adenoma + hepatocellular carcinoma + neoplastic nodule, dosed 103 weeks, study length 111 weeks",883 mg/kg/day
same,TD50,"mouse, strain B6C3F1, females, in feed, site: liver, lesion: hepatocellular adenoma + hepatocellular carcinoma, dosed 103 weeks, study length 111 weeks",883 mg/kg/day
same,TD50,"mouse, strain B6C3F1, females, in feed, site: liver, lesion: hepatocellular carcinoma, dosed 103 weeks, study length 111 weeks",2030 mg/kg/day
same,TD50,"mouse, strain B6C3F1, females, in feed, site: lung, lesion: alveolar/bronchiolar adenoma + alveolar/bronchiolar carcinoma, dosed 103 weeks, study length 111 weeks",42100 mg/kg/day
same,TD50,"mouse, strain B6C3F1, males, in feed, site: any site (literature study), lesion: several types, types named in the paper, dosed 103 weeks, study length 111 weeks",1730 mg/kg/day
same,TD50,"mouse, strain B6C3F1, males, in feed, site: liver, lesion: hepatocellular adenoma + hepatocellular carcinoma + neoplastic nodule, dosed 103 weeks, study length 111 weeks",737 mg/kg/day
same,TD50,"mouse, strain B6C3F1, males, in feed, site: liver, lesion: hepatocellular adenoma + hepatocellular carcinoma, dosed 103 weeks, study length 111 weeks",737 mg/kg/day
same,TD50,"mouse, strain B6C3F1, males, in feed, site: liver, lesion: hepatocellular adenoma, dosed 103 weeks, study length 111 weeks",933 mg/kg/day
same,carcinogen call,"rat, strain Fischer 344, females, in feed, site: any site (literature study), lesion: several types, types named in the paper, dosed 103 weeks, study length 111 weeks",negative (inactive)
same,TD50,"rat, strain Fischer 344, females, in feed, site: liver, lesion: hepatocellular adenoma + hepatocellular carcinoma + neoplastic nodule, dosed 103 weeks, study length 111 weeks",2960 mg/kg/day
same,TD50,"rat, strain Fischer 344, males, in feed, site: any site (literature study), lesion: several types, types named in the paper, dosed 103 weeks, study length 111 weeks",914 mg/kg/day (inactive)
same,TD50,"rat, strain Fischer 344, males, in feed, site: liver, lesion: hepatocellular adenoma + hepatocellular carcinoma + neoplastic nodule, dosed 103 weeks, study length 111 weeks",340 mg/kg/day
ClCC=CCCl,TD50,"rat, strain Charles River CD (Sprague-Dawley), females, inhaled, site: nasal cavity, lesion: adenoma, dosed 51 weeks, study length 104 weeks",13 mg/kg/day
same,TD50,"rat, strain Charles River CD (Sprague-Dawley), females, inhaled, site: nasal cavity, lesion: adenoma, dosed 104 weeks, study length 104 weeks",0.695 mg/kg/day
same,TD50,"rat, strain Charles River CD (Sprague-Dawley), females, inhaled, site: nasal cavity, lesion: malignant tumor, dosed 51 weeks, study length 104 weeks",0.242 mg/kg/day
same,TD50,"rat, strain Charles River CD (Sprague-Dawley), females, inhaled, site: nasal cavity, lesion: malignant tumor, dosed 104 weeks, study length 104 weeks",8.32 mg/kg/day
same,TD50,"rat, strain Charles River CD (Sprague-Dawley), males, inhaled, site: nasal cavity, olfactory epithelium, lesion: adenocarcinoma, dosed 82 weeks, study length 104 weeks",2 mg/kg/day
same,TD50,"rat, strain Charles River CD (Sprague-Dawley), males, inhaled, site: nasal cavity, olfactory epithelium, lesion: carcinoma, dosed 82 weeks, study length 104 weeks",8.88 mg/kg/day
same,TD50,"rat, strain Charles River CD (Sprague-Dawley), males, inhaled, site: nasal cavity, olfactory epithelium, lesion: carcinosarcoma, dosed 82 weeks, study length 104 weeks",8.88 mg/kg/day
same,TD50,"rat, strain Charles River CD (Sprague-Dawley), males, inhaled, site: nasal cavity, olfactory epithelium, lesion: malignant tumor, dosed 82 weeks, study length 104 weeks",1.27 mg/kg/day
same,TD50,"rat, strain Charles River CD (Sprague-Dawley), males, inhaled, site: nasal cavity, respiratory epithelium, lesion: adenoma, dosed 82 weeks, study length 104 weeks",0.653 mg/kg/day
same,TD50,"rat, strain Charles River CD (Sprague-Dawley), males, inhaled, site: nasal cavity, lesion: adenoma, dosed 51 weeks, study length 104 weeks",23.2 mg/kg/day
same,TD50,"rat, strain Charles River CD (Sprague-Dawley), males, inhaled, site: nasal cavity, lesion: adenoma, dosed 104 weeks, study length 104 weeks",0.313 mg/kg/day
same,TD50,"rat, strain Charles River CD (Sprague-Dawley), males, inhaled, site: nasal cavity, lesion: malignant tumor, dosed 51 weeks, study length 104 weeks",0.169 mg/kg/day
same,TD50,"rat, strain Charles River CD (Sprague-Dawley), males, inhaled, site: nasal cavity, lesion: malignant tumor, dosed 104 weeks, study length 104 weeks",1.04 mg/kg/day
same,TD50,"rat, strain Charles River CD (Sprague-Dawley), males, inhaled, site: nasal cavity, lesion: several types, types named in the paper, dosed 82 weeks, study length 104 weeks",0.467 mg/kg/day
